This test concerns P388 leukemia ip, CD2F1 mice, survival T/C. The test is described as follows: NCI In Vivo Anticancer Drug Screen. Data for tumor model P388 Leukemia (intraperitoneal) in CD2F1 (CDF1) mice. As to conditions: endpoint: median survival time, higher = longer survival. Summed up: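 Mice carrying the transplanted tumor received test compound or vehicle. Survival was recorded in each group, and the value is the treated-group measurement divided by that of the vehicle-treated control group.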

Setting [1] is: dose: 25.0 mg/kg/injection, schedule: Q01DX009 (ip), vehicle: Klucel (hydroxypropylcellulose) (HPC).
Setting [2] is: dose: 50.0 mg/kg/injection, schedule: Q01DX009 (ip), vehicle: Klucel (hydroxypropylcellulose) (HPC).
The mark [3] stands for this setting: dose: 100.0 mg/kg/injection, schedule: Q01DX009 (ip), vehicle: Klucel (hydroxypropylcellulose) (HPC).
[4] abbreviates: dose: 240.0 mg/kg/injection, schedule: Q01DX005 (ip), vehicle: saline with Tween-80.
Setting [5] is: dose: 12.5 mg/kg/injection, schedule: Q01DX009 (ip), vehicle: saline.
The mark [6] stands for this setting: dose: 50.0 mg/kg/injection, schedule: Q01DX009 (ip), vehicle: saline.

Values joined by “and” are separate entries in the source; they are usually repeats but may differ in a detail not shown here. Equal entries are not always repeated. Toxic doses and inconclusive results are not listed. Peptide text beside a SMILES is read from it. * marks the point of attachment. Boc = CC(C)(C)OC(=O)*

Results on 16 compounds are retold here after PubChem BioAssay AID330 (DTP/NCI, 2004).

Turning to `C=Cc1c(C)c(O)cc2c1-c1ccc(O)c(C)c1CC2`, the T/C under setting [1] is 104 % of control; the T/C under setting [2] was 100 % of control; the T/C under setting [3] is 92 % of control; the T/C (dose: 200.0 mg/kg/injection, schedule: Q01DX009 (ip), vehicle: Klucel (hydroxypropylcellulose) (HPC)) is 93 % of control.
Consider `O=[N+]([O-])c1cc(C(Nc2nncs2)Nc2nncs2)ccc1Cl`, for which the T/C was 91 % of control (dose: 30.0 mg/kg/injection, schedule: Q01DX005 (ip), vehicle: saline with Tween-80); 109 % of control and 87 % of control (dose: 60.0 mg/kg/injection, schedule: Q01DX005 (ip), vehicle: saline with Tween-80); 150 % of control under setting [4].
As for `CC(=O)OC1=C(Br)CCc2ccccc21`, the T/C runs as follows: (dose: 3.12 mg/kg/injection, schedule: Q01DX009 (ip), vehicle: DMSO) 103 % of control; (dose: 6.25 mg/kg/injection, schedule: Q01DX009 (ip), vehicle: DMSO) 108 % of control; (dose: 12.5 mg/kg/injection, schedule: Q01DX009 (ip), vehicle: DMSO) 90 % of control and 96 % of control; (dose: 25.0 mg/kg/injection, schedule: Q01DX009 (ip), vehicle: DMSO) 93 % of control.
On to `CSCCC(NC(=O)C(CC(C)C)NC(=O)OC(C)(C)C)C(N)=O` (stereo not drawn) (Boc-Leu-Met-NH2; configuration not given here), for which the T/C is 98 % of control (dose: 50.0 mg/kg/injection, schedule: Q01DX005 (ip), vehicle: Klucel (hydroxypropylcellulose) (HPC)); 91 % of control (dose: 100.0 mg/kg/injection, schedule: Q01DX005 (ip), vehicle: Klucel (hydroxypropylcellulose) (HPC)); 95 % of control (dose: 200.0 mg/kg/injection, schedule: Q01DX005 (ip), vehicle: Klucel (hydroxypropylcellulose) (HPC)).
Turning to `NNC(=O)c1ccc(-c2ccccc2)cc1`, the T/C is 102 % of control (dose: 6.25 mg/kg/injection, schedule: Q01DX009 (ip), vehicle: Klucel (hydroxypropylcellulose) (HPC)); 107 % of control (dose: 12.5 mg/kg/injection, schedule: Q01DX009 (ip), vehicle: Klucel (hydroxypropylcellulose) (HPC)); 102 % of control under setting [1]; 110 % of control under setting [2]; 116 % of control under setting [3].
For `C[CH2][Sn]([c]1ccccc1)[c]1ccccc1`, the T/C under setting [5] was 109 % of control; the T/C (dose: 25.0 mg/kg/injection, schedule: Q01DX009 (ip), vehicle: saline) is 114 % of control; the T/C (dose: 25.0 mg/kg/injection, schedule: Q04DX003 (ip), vehicle: saline) was 108 % of control; the T/C under setting [6] was 114 % of control and 116 % of control; the T/C (dose: 50.0 mg/kg/injection, schedule: Q04DX003 (ip), vehicle: saline) was 115 % of control; the T/C (dose: 100.0 mg/kg/injection, schedule: Q04DX003 (ip), vehicle: saline) was 109 % of control.
For `COC1OC(CNC(=O)N(CCCl)N=O)C(O)C(O)C1O` (configuration not stated), the T/C was 182 % of control (dose: 1.56 mg/kg/injection, schedule: Q01DX009 (ip), vehicle: saline); 204 % of control (dose: 3.12 mg/kg/injection, schedule: Q01DX009 (ip), vehicle: saline); 157 % of control (dose: 3.12 mg/kg/injection, schedule: Q04DX002 (ip), vehicle: saline); 248 % of control (dose: 6.25 mg/kg/injection, schedule: Q01DX009 (ip), vehicle: saline); 212 % of control (dose: 6.25 mg/kg/injection, schedule: Q04DX002 (ip), vehicle: saline); 278 % of control (dose: 10.0 mg/kg/injection, schedule: Q04DX002 (ip), vehicle: saline). Also, the T/C under setting [5] was 263 % of control; the T/C (dose: 12.5 mg/kg/injection, schedule: Q04DX002 (ip), vehicle: saline) was 277 % of control; the T/C (dose: 20.0 mg/kg/injection, schedule: Q04DX002 (ip), vehicle: saline) was 288 % of control; the T/C (dose: 25.0 mg/kg/injection, schedule: Q04DX002 (ip), vehicle: saline) is 222 % of control; the T/C (dose: 40.0 mg/kg/injection, schedule: Q04DX002 (ip), vehicle: saline) is 86 % of control.
Turning to `CCCCCCCCCCCCCCCC(O)CC(O)CC(O)CC1CC=CC(=O)O1` (configuration not stated), the T/C by setting is: (dose: 4.0 mg/kg/injection, schedule: Q01DX009 (ip), vehicle: Klucel (hydroxypropylcellulose) (HPC)) 100 % of control; (dose: 8.0 mg/kg/injection, schedule: Q01DX009 (ip), vehicle: Klucel (hydroxypropylcellulose) (HPC)) 100 % of control; (dose: 16.0 mg/kg/injection, schedule: Q01DX009 (ip), vehicle: Klucel (hydroxypropylcellulose) (HPC)) 104 % of control; (dose: 32.0 mg/kg/injection, schedule: Q01DX009 (ip), vehicle: Klucel (hydroxypropylcellulose) (HPC)) 109 % of control.
Take `O=C1C=CC(Nc2cc(Cl)ccc2Cl)C1Nc1cc(Cl)ccc1Cl` (configuration not stated): the T/C reads like this: (dose: 1.88 mg/kg/injection, schedule: Q01DX005 (ip), vehicle: saline with Tween-80) 99 % of control; (dose: 3.75 mg/kg/injection, schedule: Q01DX005 (ip), vehicle: saline with Tween-80) 97 % of control; (dose: 7.5 mg/kg/injection, schedule: Q01DX005 (ip), vehicle: saline with Tween-80) 87 % of control and 93 % of control; under setting [4], 86 % of control and 89 % of control.
`COc1ccc2c(c1)CCC1C2=CCS1(=O)=O` (configuration not stated): the T/C runs as follows: (dose: 50.0 mg/kg/injection, schedule: Q01DX005 (ip), vehicle: saline with Tween-80) 103 % of control; (dose: 100.0 mg/kg/injection, schedule: Q01DX005 (ip), vehicle: saline with Tween-80) 94 % of control; (dose: 200.0 mg/kg/injection, schedule: Q01DX005 (ip), vehicle: saline with Tween-80) 92 % of control.
As for `O=C1c2ccccc2C(=O)c2c1ccc1c2[nH]c2cc(Cl)c(Cl)cc21`, the T/C is, setting by setting: (dose: 50.0 mg/kg/injection, schedule: Q01DX005 (ip), vehicle: Klucel + Tween-80) 98 % of control; (dose: 100.0 mg/kg/injection, schedule: Q01DX005 (ip), vehicle: Klucel + Tween-80) 91 % of control; (dose: 200.0 mg/kg/injection, schedule: Q01DX005 (ip), vehicle: Klucel + Tween-80) 98 % of control.
With `ONc1ccc2c(c1)C1C(C3C2C2(Cl)C(Cl)=C(Cl)C3(Cl)C2(Cl)Cl)C2(Cl)C(Cl)=C(Cl)C1(Cl)C2(Cl)Cl` (configuration not stated), the T/C is, setting by setting: under setting [6], 96 % of control; (dose: 100.0 mg/kg/injection, schedule: Q01DX009 (ip), vehicle: saline) 99 % of control; (dose: 200.0 mg/kg/injection, schedule: Q01DX009 (ip), vehicle: saline) 92 % of control.
Regarding `C[C@H]1COC(c2ccccn2)=N1`, the T/C (dose: 60.0 mg/kg/injection, schedule: Q01DX005 (ip), vehicle: saline) was 105 % of control; the T/C (dose: 120.0 mg/kg/injection, schedule: Q01DX005 (ip), vehicle: saline) is 106 % of control; the T/C (dose: 240.0 mg/kg/injection, schedule: Q01DX005 (ip), vehicle: saline) is 96 % of control.
As for `Cc1c(N)nc(C(CC(N)=O)NCC(N)C(N)=O)nc1C(=O)NC(C(=O)NC(C)C(O)C(C)C(=O)NC(C(=O)NCCc1nc(-c2nc(C(=O)NCCCNCCCCN)cs2)cs1)C(C)O)C(OC1OC(CO)C(O)C(O)C1OC1OC(CO)C(O)C(OC(N)=O)C1O)c1cnc[nH]1` (configuration not stated), the T/C runs as follows: (dose: 12.5 mg/kg/injection, schedule: Q01DX005 (ip), vehicle: saline) 117 % of control; (dose: 100.0 mg/kg/injection, schedule: Q01DX005 (ip), vehicle: saline) 104 % of control.
`COc1ccc2c(c1)C(=O)C1(CC2)OC1c1cccnc1` (configuration not stated): the T/C (dose: 12.5 mg/kg/injection, schedule: Q01DX009 (ip), vehicle: other) was 110 % of control; the T/C (dose: 25.0 mg/kg/injection, schedule: Q01DX009 (ip), vehicle: other) is 115 % of control; the T/C (dose: 50.0 mg/kg/injection, schedule: Q01DX009 (ip), vehicle: other) was 100 % of control and 117 % of control; the T/C (dose: 100.0 mg/kg/injection, schedule: Q01DX009 (ip), vehicle: other) was 115 % of control and 117 % of control; the T/C (dose: 200.0 mg/kg/injection, schedule: Q01DX009 (ip), vehicle: other) is 94 % of control; the T/C (dose: 400.0 mg/kg/injection, schedule: Q01DX009 (ip), vehicle: other) is 99 % of control.
In the case of `O=C(Nn1c(=O)[nH]c2ccccc2c1=O)c1ccc(Cl)cc1`, the T/C is, setting by setting: (dose: 60.0 mg/kg/injection, schedule: Q01DX005 (ip), vehicle: Klucel (hydroxypropylcellulose) (HPC)) 98 % of control; (dose: 120.0 mg/kg/injection, schedule: Q01DX005 (ip), vehicle: Klucel (hydroxypropylcellulose) (HPC)) 93 % of control; (dose: 240.0 mg/kg/injection, schedule: Q01DX005 (ip), vehicle: Klucel (hydroxypropylcellulose) (HPC)) 90 % of control.
